Data: patent publication US5284847A, “Thieno pyrazine diones, their preparation and use” (Novo Nordisk A/S, priority 1991, dated 1994)

Tests used:
[1] = test system: convulsions induced by i.c.v. infusion of NMDA; test: Convulsions induced by i.c.v. infusion of NMDA (Test 2), time to onset of clonic seizures; type: in vivo, mouse (male NMRI); settings: i.c.v. co-infusion with NMDA, mice
Procedure: The glycine antagonists are co-infused with NMDA and their anticonvulsive effect is measured by determining a) the TVSO value which represents the dose (μg/kg) of the glycine antagonist that has to be infused per minute in order to increase time to onset of clonic seizures by 50%, b) the ED50 value which represents the dose (μg/kg) of the glycine antagonist that has to be infused per minute in order to protect 50% of the animals against clonic seizures for 150 seconds after the start of i.c.v. infusion.
Convulsions induced by i.c.v. infusion of NKDA (Test 2 & 3)
58.84 μg/ml ([…] in 2.5 μl) of NMDA (Sigma) dissolved in 0.9% NaCl is co-infused i.c.v. with a glycine antagonist at a speed of 5 μl/min. Infusion is performed through a cannula placed 1 mm posterior and 1 mm lateral to the Bregma point. The cannula is injected […] into the skull of male NMRI mice weighing 25 g (range 23-27 g). Placement and length of the cannula into the skull is fixed by a plate positioned 4.3 mm from the point of the cannula. The infusion is stopped after the appearance of clonic seizures in all extremities or 150 seconds after the start time of the infusion. At least 5 doses of each glycine antagonist are tested using 8 mice per dose.

[2] = biological target: T1, glycine site of the NMDA receptor complex (Rattus norvegicus, UniProt P35439); test: In vitro [3H]-Glycine Binding to Rat Brain Membranes (Test 1); design: species or system rat (male Wistar); settings: rat forebrain membranes, 4° C., 30 min, read-out: IC50, displacement of 50% of the specific binding of [3H]-glycine
T1 construct: Crude synaptic (P2) membranes are prepared from rat forebrains freshly dissected from male Wistar rats; from tissue; host or cells: forebrain of male Wistar rats, crude synaptic (P2) membranes, washed with Triton X-100
Procedure: The compounds according to the invention were tested as regards the affinity for one or more of the different types of excitatory amino acid receptors and studied in simple radioligand binding experiments. In essence, the method involves incubation of a particular selected radiolabelled ligand and the particular specific substance to be investigated with brain homogenates which contain the receptor. Measurement of receptor occupancy is made by determination of the specific radioactivity bound to the homogenate.
The glycine site binding activity of these compounds of the present invention can be illustrated by determining their capability for displacing radioactively labelled glycine from the glycine site.
The displacement activity of the compounds may be shown by determining the IC50 value which represents the concentration (μM) which causes a displacement of 50% of the specific binding of [^3 H)-glycine.
In vitro [^3 H]-Glycine Binding to Rat Brain Membranes (Test 1)
The membrane preparation and assay of specific [^3 H]-glycine binding is based upon methodology described by Haring et al. (1991) J. Neurochem. 57, 323-332 and Yoneda et al. (1991) J. Neurochem. 55, 237-244.
All steps are performed at 4° C. Buffers are prepared fresh each week from distilled, deionized water and filtered through sterile 0.2 μm membranes to eliminate artifacts due to microbial contamination. Crude synaptic (P2) membranes are prepared from rat forebrains freshly dissected from male Wistar rats and washed 4 times with low ionic strength buffer.,On the day of the assay these preparations are additionally washed with buffer containing a low concentration (0.08% g/g) of Triton X-100, and then twice more in the absence of this detergent. The procedure is aimed at the disruption of synaptic membrane vesicles and removal of endogenous amino acids.
Specific radioligand binding is measured by incubating membranes (400-600 μg/ml of protein) with […] [^3 H]-glycine in the presence or absence of 1mM of unlabelled glycine at 4° C. for 30 min. Free and bound ligand are separated by centrifugation. Each pellet is rinsed 2X and bound radioactivity measured by liquid scintillation counting. Test substances are substituted for unlabelled glycine in the assay.

`CCCc1c(Cl)sc2[nH]c(=O)c(=O)[nH]c12` [Example 10, 6-Chloro-7-propylthieno[2,3-b)pyrazine-2,3(1H,4H)-dione] was tested, and the “TV50, dose infused per minute to increase time to onset of clonic seizures by 50%” value [1] was 0.0094 mg/kg and the IC50 [2] was 180 nM.
In the case of `O=c1[nH]c2scc(Br)c2[nH]c1=O` [Example 38, 7-Bromothieno(2,3-b)pyrazine-2,3(1H,4H)-dione], the “TV50, dose infused per minute to increase time to onset of clonic seizures by 50%” value [1] is reported as 0.0348 mg/kg and the IC50 [2] is reported as 180 nM.
In the case of `O=c1[nH]c2scc(C3CC3)c2[nH]c1=O` [Example 25, 7-Cyclopropylthieno(2,3-b]pyrazine-2,3(1H,4H)-dione], the “TV50, dose infused per minute to increase time to onset of clonic seizures by 50%” value [1] is reported as 0.076 mg/kg and the IC50 [2] is reported as 850 nM.
With `Cc1sc2[nH]c(=O)c(=O)[nH]c2c1C#N` [Example 6, 7-Cyano-6-methylthieno[2,3-b)pyrazine-2,3(1H,4H)-dione] the “TV50, dose infused per minute to increase time to onset of clonic seizures by 50%” value [1] was 0.044 mg/kg and the IC50 [2] was 1270 nM.
With `Cc1csc2[nH]c(=O)c(=O)[nH]c12` [Example 2, 7-Methylthieno(2,3-b)pyrazine-2,3(1H,4H)-dione] the “TV50, dose infused per minute to increase time to onset of clonic seizures by 50%” value [1] was 0.007 mg/kg and the IC50 [2] was 1000 nM.
